Laboratory results taken from patent US20180179198A1, “TRICYCLIC MODULATORS OF TNF SIGNALING” (AbbVie Inc., priority 2015, published 2018).
Counter-ions that a name gives are not always drawn.

biological target: TNFα trimer (Homo sapiens, UniProt P01375); assay: TNFα FP Competitive Binding Assay; conditions: TNFα FP competitive binding assay; class symbols A/B/C; read-out: TNF IC50
Method in brief: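 Compounds, 12-point 1:3 dilutions topping at 100 μM (2.0% DMSO) or 338 μM (3.4% DMSO) final, compete with 1 nM fluorescent probe for 20 nM TNFα trimer in HEPES/NaCl/EDTA/Triton buffer. After 18-24 h incubation at 37 °C plus 1 h rt equilibration, background-subtracted polarization is read and fitted with variable slope.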

Chain of TNFα trimer (P01375 77-233 limits assumed): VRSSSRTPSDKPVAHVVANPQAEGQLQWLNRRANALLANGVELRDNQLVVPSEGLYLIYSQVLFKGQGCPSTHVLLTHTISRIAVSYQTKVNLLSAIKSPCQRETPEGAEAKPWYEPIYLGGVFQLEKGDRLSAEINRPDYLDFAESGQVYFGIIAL

IC50	SMILES
1000 to 10000 nM	CC(O)C(=O)N1CCN(c2ncc(-c3ccc4nc5n(c4n3)C(c3ccccc3)COC5)cn2)CC1 (stereo not drawn) [AZ.6]
< 1000 nM	CC(C)(O)c1ncc(-c2ccc3nc4n(c3c2)C(c2ccccc2)COC4)cn1 (stereo not drawn) [T.35]
1000 to 10000 nM	CN1CC[C@H](Oc2cc(-c3ccc4nc5n(c4n3)[C@@H](c3ccccc3)CC5)ccn2)C1 [AQ.8]
1000 to 10000 nM	CN(C)c1ncc(-c2ccc3nc4n(c3c2)C(c2ccccc2)COC4)cn1 (stereo not drawn) [T.14]
1000 to 10000 nM	Cc1cc(-c2ccc3nc4n(c3c2)C(c2ccccc2)COC4)cnc1OC(C)C (stereo not drawn) [T.30]
< 1000 nM	c1ccc(C2COCc3nc4ccc(-c5ccc(N6CCOCC6)nc5)cc4n32)cc1 (stereo not drawn) [T.25]
< 1000 nM	c1ccc([C@H]2COCc3nc4ccc(-c5cnc(N6CCOCC6)nc5)nc4n32)cc1 [AB.1]
< 1000 nM	CCOc1ncc(-c2ccc3nc4n(c3n2)C2(CCOc3ccccc32)COC4)cn1 (stereo not drawn) [BA.2]
1000 to 10000 nM	c1nc(N2CCOCC2)ncc1-c1ccc2nc3c(n2n1)C1(CCCCC1)OCC3 [AY.1]
< 1000 nM	C[C@@H]1CN(C(=O)CO)CCN1c1ncc(-c2ccc3nc4n(c3n2)C2(COC4)COc3ccccc32)cn1 (stereo partly drawn) [BH.2]
< 1000 nM	c1ccc2c(c1)CCC21COCc2nc3ccc(-c4cnc(N5CCOCC5)nc4)nc3n21 (stereo not drawn) [AV.8]
1000 to 10000 nM	CN1CCN(c2ccc(-c3ccc4nc5n(c4c3)C(c3ccccc3)COC5)cn2)CC1 (stereo not drawn) [T.20]
1000 to 10000 nM	O=c1cc(-c2ccc3nc4n(c3n2)[C@@H](c2ccccc2)CC4)ccn1CC1CCC(F)(F)CC1 [AW.1]
1000 to 10000 nM	c1ccc([C@H]2CCc3nc4ccc(-c5ccnc(O[C@@H]6CCNC6)c5)nc4n32)cc1 [AT.2]
1000 to 10000 nM	CC(C)(O)c1ncc(-c2ccc3nc4n(c3n2)C2(CCOc3ccccc32)COC4)cn1 (stereo not drawn) [BA.7]
< 1000 nM	O=C1NCC2CN(c3ncc(-c4ccc5nc6n(c5c4)C(c4ccccc4F)COC6)cn3)CCN12 (stereo not drawn) [AH.1]
1000 to 10000 nM	Cc1nccn1-c1cnc(-c2ccc3nc4n(c3c2)C(c2ccccc2)COC4)cn1 (stereo not drawn) [T.8]
< 1000 nM	COc1ccccc1C1CCCCc2nc3ccc(-c4cnc(N5CCOCC5)nc4)cn3c21 (stereo not drawn) [S.1]
< 1000 nM	COc1ccccc1[C@H]1COCc2nc3ccc(-c4cnc(C(C)(C)O)nc4)cc3n21 [Z.1]
< 1000 nM	COc1ccccc1C1CCCc2nc3ccc(-c4cnc(N5CCC(O)CC5)nc4)nc3n21 (stereo not drawn) [AE.1]
1000 to 10000 nM	CN1CCN(c2ncc(-c3ccc4nc5n(c4n3)C3(COC5)COc4ccccc43)cn2)CC1 (stereo not drawn) [AU.5]
1000 to 10000 nM	c1ccc(C2COCc3nc4ccc(-c5cnc(-n6cccn6)cn5)cc4n32)cc1 (stereo not drawn) [T.21]
< 1000 nM	OC1(c2ncc(-c3ccc4nc5n(c4c3)[C@@H](c3ccccc3)CC5)cn2)CCOCC1 [AA.1]
1000 to 10000 nM	c1ccc(C2COCc3nc4ccc(-c5cnc6ccoc6c5)cc4n32)cc1 (stereo not drawn) [T.29]
1000 to 10000 nM	COC(=O)C1CCC(Oc2cc(-c3ccc4nc5n(c4n3)[C@@H](c3ccccc3)CC5)ccn2)C1 (stereo partly drawn) [AS.5]

SMILES	IC50
C[C@H]1CN(c2ncc(-c3ccc4nc5n(c4n3)C3(COC5)COc4ccccc43)cn2)CCN1C(=O)COC(C)(C)C (stereo partly drawn) [BG.3, 2-(tert-Butoxy)-1-((2S)-4-(5-(6′,8′-dihydro-2H-spiro[benzofuran-3,9′-pyrido[3′,2′:4,5]imidazo[2,1-c][1,4]oxazin]-2′-yl)pyrimidin-2-yl)-2-methylpiperazin-1-yl)ethanone]	1000 to 10000 nM

same assay, conditions: Table BK; read-out: TNF IC50

IC50	SMILES
1000 to 10000 nM	O[C@H]1CC[C@H](COc2cc(-c3ccc4nc5n(c4n3)[C@@H](c3ccccc3)CC5)ccn2)CC1 [BK.2]

same assay, conditions: Table BL; read-out: TNF IC50

IC50	SMILES
< 1000 nM	C[C@@H]1CN(c2ncc(-c3ccc4nc5n(c4n3)[C@@]3(COC5)COc4ccccc43)cn2)CCN1C(=O)CO [BL.1]

same assay, conditions: Table BN; read-out: TNF IC50

IC50	SMILES
1000 to 10000 nM	COC(=O)CC1CC=C(c2ccc3nc4n(c3n2)[C@@H](c2ccccc2)CC4)CC1 (stereo partly drawn) [BN.1]

same assay, conditions: Table BP; read-out: TNF IC50

IC50	SMILES
1000 to 10000 nM	c1ccc2c(c1)COCC21COCc2nc3ccc(-c4cnc(N5CCOCC5)nc4)nc3n21 (stereo not drawn) [BP.1]

same assay, conditions: fluorescence polarization competition; 20 nM TNFα trimer, 1 nM OregonGreen488 probe; read-out: TNF IC50 (TNFα FP binding assay IC50)

IC50	SMILES
10000 to 100000 nM	CC(C)(O)c1ncc(-c2ccc3nc4n(c3c2)C(C2CCOCC2)CC4)cn1 (stereo not drawn) [Example 38, 2-(5-(1-(Tetrahydro-2H-pyran-4-yl)-2,3-dihydro-1H-benzo[d]pyrrolo[1,2-a]imidazol-7-yl)pyrimidin-2-yl)propan-2-ol]
1000 to 10000 nM	COc1ccccc1C1CCCc2nc3ccc(-c4ccc(C(=O)O)s4)cn3c21 (stereo not drawn) [Example 23, 5-(9-(2-Methoxyphenyl)-6,7,8,9-tetrahydrobenzo[4,5]imidazo[1,2-a]pyridin-2-yl)thiophene-2-carboxylic acid]
< 1000 nM	OC1CCN(c2ncc(-c3ccc4nc5n(c4n3)C3(COC5)COc4ccccc43)cn2)CC1 (stereo not drawn) [Example 50, 1-(5-(6′,8′-Dihydro-2H-spiro[benzofuran-3,9′-pyrido[3′,2′:4,5]imidazo[2,1-c][1,4]oxazin]-2′-yl)pyrimidin-2-yl)piperidin-4-ol]
< 1000 nM	OC1CCN(c2ncc(-c3ccc4nc5n(c4c3)[C@@H](c3ccccc3)CC5)cn2)CC1(F)F (stereo partly drawn) [F.2]
1000 to 10000 nM	O=C1NCNC12CCN(c1ncc(-c3ccc4nc5n(c4c3)[C@@H](c3ccccc3)COC5)cn1)CC2 [G.6]
< 1000 nM	O=C1CN(c2ncc(-c3ccc4nc5n(c4n3)C(c3ccccc3)CCC5)cn2)CCN1 (stereo not drawn) [O.3]
1000 to 10000 nM	COc1ccccc1C1CCCc2nc3ccc(-c4cnc(NCC(=O)O)nc4)cn3c21 (stereo not drawn) [Example 8, 2-((5-(9-(2-methoxyphenyl)-6,7,8,9-tetrahydrobenzo[4,5]imidazo[1,2-a]pyridin-2-yl)pyrimidin-2-yl)amino)acetic acid]
1000 to 10000 nM	c1ccc(C2CCOc3nc4ccc(-c5cnc(N6CCOCC6)nc5)cn4c32)cc1 (stereo not drawn) [D.4]
< 1000 nM	CC(=O)N1CCN(c2ncc(-c3ccc4nc5n(c4n3)[C@@H](c3ccccc3)CC5)cn2)C[C@@H]1C [Example 42, 1-((S)-2-Methyl-4-(5-((R)-8-phenyl-7,8-dihydro-6H-pyrrolo[2′,1′:2,3]imidazo[4,5-b]pyridin-2-yl)pyrimidin-2-yl)piperazin-1-yl)ethanone]
1000 to 10000 nM	CNC(=O)c1ccc(-c2ccc3nc4n(c3c2)C(c2ccccc2)CC4)cc1 (stereo not drawn) [A.40]
10000 to 100000 nM	COc1cccc(C2(O)CCCCc3nc4ccc(-c5cnc(N6CCOCC6)nc5)cn4c32)c1 (stereo not drawn) [J.10]
< 1000 nM	CC(C)(O)c1ncc(-c2ccc3nc4n(c3c2)C(C2CCCCC2)CC4)cn1 (stereo not drawn) [Example 17, 2-(5-(1-Cyclohexyl-2,3-dihydro-H-benzo[d]pyrrolo[1,2-a]imidazol-7-yl)pyrimidin-2-yl)propan-2-ol]
1000 to 10000 nM	CC(C)(O)c1ncc(-c2ccc3nc4n(c3n2)C2(COC4)CC(O)c3ccccc32)cn1 (stereo not drawn) [Example 81, 2′-(2-(2-Hydroxypropan-2-yl)pyrimidin-5-yl)-2,3,6′,8′-tetrahydrospiro[indene-1,9′-pyrido[3′,2′:4,5]imidazo[2,1-c][1,4]oxazin]-3-ol]
1000 to 10000 nM	O=C(O)C1CCN(c2ncc(-c3ccc4nc5n(c4c3)C(c3ccccc3)CCC5)cn2)CC1 (stereo not drawn) [H.2]
10000 to 100000 nM	CN(C)CCNC(=O)c1cccc(-c2ccc3nc4n(c3c2)C(c2ccccc2)CC4)c1 (stereo not drawn) [A.45]
10000 to 100000 nM	c1ccc([C@@H]2COCc3nc4ccc(-c5cnc(N6CCOCC6)nc5)cc4n32)cc1 [Example 20, (R)-7-(2-Morpholinopyrimidin-5-yl)-4-phenyl-3,4-dihydro-1H-benzo[4,5]imidazo[2,1-c][1,4]oxazine]
< 1000 nM	O=S1(=O)CCN(c2ncc(-c3ccc4nc5n(c4c3)[C@@H](c3ccccc3)CC5)cn2)CC1 [F.4]
1000 to 10000 nM	c1ccc([C@H]2CCc3nc4ccc(-c5ccnc(OCC6CCOCC6)c5)nc4n32)cc1 [Example 61, (R)-8-Phenyl-2-(2-((tetrahydro-2H-pyran-4-yl)methoxy)pyridin-4-yl)-7,8-dihydro-6H-pyrrolo[2′,1′:2,3]imidazo[4,5-b]pyridine]
< 1000 nM	CN(C)C(=O)c1ccc(-c2ccc3nc4n(c3c2)C(c2ccccc2)CC4)cc1 (stereo not drawn) [A.10]
1000 to 10000 nM	O=P(O)(O)OC1CCN(c2ncc(-c3ccc4nc5n(c4n3)[C@@H](c3ccccc3)CC5)cn2)CC1 [Example 46.1, (R)-1-(5-(8-Phenyl-7,8-dihydro-6H-pyrrolo[2′,1′:2,3]imidazo[4,5-b]pyridin-2-yl)pyrimidin-2-yl)piperidin-4-yl dihydrogen phosphate hydrochloride]
< 1000 nM	CC(C)(O)c1ncc(-c2ccc3nc4n(c3c2)C(c2ccccc2)CCC4)cn1 (stereo not drawn) [E.1, 2-(5-(1-Phenyl-1,2,3,4-tetrahydrobenzo[4,5]imidazo[1,2-a]pyridin-8-yl)pyrimidin-2-yl)propan-2-ol]
1000 to 10000 nM	CN1CCN(c2ccc(-c3ccc4nc5n(c4c3)C(c3ccccc3)CC5)cn2)CC1 (stereo not drawn) [A.20]
< 1000 nM	OC1CCN(c2ncc(-c3ccc4nc5c(n4n3)C(c3ccccc3)CC5)cn2)CC1 (stereo not drawn) [Example 33, 1-(5-(8-Phenyl-7,8-dihydro-6H-cyclopenta[4,5]imidazo[1,2-b]pyridazin-2-yl)pyrimidin-2-yl)piperidin-4-ol]
1000 to 10000 nM	Cc1cc(-c2ccc3nc4n(c3c2)C(c2ccccc2)CC4)ccn1 (stereo not drawn) [A.13]
10000 to 100000 nM	O=C1CN(c2ncc(-c3cnc4nc5n(c4c3)C(c3ccccc3)CCC5)cn2)CCN1 (stereo not drawn) [Q.1]
1000 to 10000 nM	CC1(C)C=C(c2ccc3nc4n(c3n2)C2(COC4)COc3ccccc32)CN1 (stereo not drawn) [Example 65, 2′-(5,5-Dimethyl-2,5-dihydro-1H-pyrrol-3-yl)-6′,8′-dihydro-2H-spiro[benzofuran-3,9′-pyrido[3′,2′:4,5]imidazo[2,1-c][1,4]oxazine]]
1000 to 10000 nM	Cc1cccc(C2(O)CCCc3nc4ccc(-c5cnc(N6CCOCC6)nc5)cn4c32)c1 (stereo not drawn) [I.3]
< 1000 nM	Fc1cccc(C2CCc3nc4ccc(-c5cnc(N6CCOCC6)nc5)nc4n32)c1 (stereo not drawn) [M.1]
< 1000 nM	c1ccc([C@H]2COCc3nc4ccc(-c5cnc(N6CCCOCC6)nc5)cc4n32)cc1 [G.32]
1000 to 10000 nM	OC1(c2ccc(F)cc2)CCCc2nc3ccc(-c4cnc(N5CCOCC5)nc4)cn3c21 (stereo not drawn) [I.6]
